Laboratory results taken from patent US20230364032A1, “USE OF 2-HOBA TO TREAT ATHEROSCLEROSIS” (Vanderbilt University, priority 2020, published 2023).
Entries after “also recorded” stand apart in the source; their conditions may differ.

Legend:
[1] = system: WT peritoneal macrophages; assay: Cholesterol enrichment of macrophages by LDL from treated mice; type: cell-based, mouse; conditions: LDL from 2-HOBA versus 4-HOBA or vehicle treated Ldlr−/− mice, 24 hrs
Protocol: FIG. 21A-D show the effects of 2-HOBA on plasma and LDL MDA adducts in hypercholesterolemic Ldlr^−/− mice. (20A) The MDA content in plasma from Ldlr^−/− mice consuming a Western diet for 16 weeks and treated with 2-HOBA, 4-HOBA, or vehicle was measured by TBARS Assay(*p<0.05, **p<0.01). (20B) The levels of MDA adducts were measured from LDL isolated from the Ldlr^−/− mice by ELISA. N=10 per group, ***p<0.001. (20C) LDL was isolated from control and FH subjects (n=6) pre and post LDL apheresis and the MDA adduct content was measured by ELISA. (20D) LDL was isolated from 2-HOBA, 4-HOBA, or vehicle treated hypercholesterolemic Ldlr^−/− mice. WT peritoneal macrophages were incubated for 24 hrs with the LDL and the cellular cholesterol content was measured as described in methods. (20A-D) One-way ANOVA with Bonferroni's post hoc test).
MDA was prepared immediately before use by rapid acid hydrolysis of maloncarbonyl bis-(dimethylacetal) as described^31. Briefly, 20 μL of 1 M HCl was added to 200 μL of maloncarbonyl bis-(dimethylacetal), and the mixture was incubated for 45 min at room temperature. The MDA concentration was determined by absorbance at 245 nm, using the coefficient factor 13, 700 M^−1 cm^−1. […] The LDL samples were incubated for 24 h with macrophages and the cholesterol content of the cells was measured using an enzymatic cholesterol assay as described^61.

[2] = system: Apoe−/− macrophage foam cells; assay: Capacity of HDL from treated mice to reduce macrophage cholesterol; type: cell-based, mouse; conditions: for efficiency of HDL at reducing cholesterol stores in Apoe−/− macrophage foam cells: HDL isolated from treated Ldlr−/− mice, 25 μg protein/ml, 24 h
Protocol: (§1) FIGS. 7A-7G show the effects of 2-HOBA on MDA-HDL adducts and HDL function. (7A) The levels or MDA adducts were measured by ELISA in HDL isolated from Ldlr mice treated as described in FIG. 1. Data are presented as mean±SEM (N=8 pet group), *** p<0.001, One-way ANOVA with Bonferroni's post hoc test. (7B) Western blots of apoAl and MDA-apoAl in HDL isolated from plasma by immunoprecipitation using primary anti-apoAl antibody. Ldlf mice were treated as described In FIG. 1 and apoAl and MDA-apoAl from Ldlr mice consuming a chow diet are included f0t comparison. (7C) Quantitation using lmageJ software of the mean density ratio (arbitrary units) of MDA-apoAl to apoAl detected by Western blotting (7B). (7D The HDL was isolated from the plasma of Ld/r-mice consuming a western diet for 16 weeks and treated with 2-HOBA or 4-HOBA or vehicle. Cholesterol enriched macrophages were incubated for 24 h with HDL (25 μg protein/ml). and the % reduction in cellular cholesterol content measured. Data presented as mean±SEM. N=7 per group, *p<0.05.**p<0.01, One-way ANOVA with Bonferroni's post hoc test (7E) The MDA adducts were measured by ELISA in HDL isolated from control or FH subjects before and after LDL apheresis. N=7 or 8, ***p<0.001, One-way ANOVA with Bonferroni's post hoc test. (7F) The MDA-Lysyl crosslink content in HDL from control or FH subjects (n=6 per group), p=0.02, Mann-Whitney test (7G) The capacity of HDL from control or FH subjects pre and post LDL apheresis (n=7 per group) to reduce the cholesterol content of apoE macrophages.
HDL was isolated from mouse plasma using HDL Purification Kit (Cell BioLabs, Inc.) following the manufacturer's protocol. Briefly, apoB containing lipoproteins and HDL were sequentially precipitated with dextran sulfate. The HDL was then resuspended and washed. After removing the dextran sulfate, the HDL was dialyzed against PBS. […] Cellular cholesterol was measured before and after incubation with HDL using an enzymatic cholesterol assay as described^61.

[3] = system: MDA-HDL; assay: MDA adducts in isolated HDL by ELISA; type: in vivo, mouse; conditions: Ldlr−/− mice
Protocol: as §1
The study was approved by the Vanderbilt University Institutional Review Board (IRB), and all participants gave their written informed consent. The human blood samples from patients with severe FH, who were undergoing LDL apheresis, and healthy controls were obtained using an IRB approved protocol. […] After stopping the reaction, the O.D. was measured at 450 nm wavelength. MDA-ApoAI was detected in mouse plasma by immunoprecipitation of ApoAI and western blotting. […] Proteins were visualized and quantitated by Odyssey 3.0 Quantification software (LI-COR).

Q: Which results are given for NCc1ccccc1O [2-HOBA, 2-hydroxybenzylamine]?
A: ability of LDL from treated mice to enrich cells with cholesterol [1]: not different; capacity of mouse HDL to reduce macrophage cholesterol stores ([2]; HDL from treated Ldlr−/− mice): increased; also recorded: enhanced capacity; efficiency of HDL at reducing cholesterol stores in Apoe−/− macrophage foam cells ([2]; versus 4-HOBA treated mice): 1.7 fold; efficiency of HDL at reducing cholesterol stores in Apoe−/− macrophage foam cells ([2]; versus vehicle treated mice): 2.2 fold; MDA content in HDL [3]: reduced; reduction of MDA adduct content of isolated HDL (ELISA) ([3]; compared to 4-HOBA): 56%; reduction of MDA adduct content of isolated HDL (ELISA) ([3]; compared to vehicle): 57%
